Reference: paper PMC6208908, “Field template-based design and biological evaluation of new sphingosine kinase 1 inhibitors” (Breast Cancer Research and Treatment, 2018)

Assays:
[1] = target: T1, endogenous SK1 in MDA-MB-231 cells (Homo sapiens, UniProt Q9NYA1); assay: SK1 activity in lysates of treated MDA-MB-231 cells; type: cell-based; settings: 6 h
T1 construct: We treated MDA-MB-231 cells with 1 µM of compounds SK-A – SK-F and SKI-II as the positive control for 6 h; endogenous in cells; host or cells: MDA-MB-231
T1 sequence (Q9NYA1 whole entry): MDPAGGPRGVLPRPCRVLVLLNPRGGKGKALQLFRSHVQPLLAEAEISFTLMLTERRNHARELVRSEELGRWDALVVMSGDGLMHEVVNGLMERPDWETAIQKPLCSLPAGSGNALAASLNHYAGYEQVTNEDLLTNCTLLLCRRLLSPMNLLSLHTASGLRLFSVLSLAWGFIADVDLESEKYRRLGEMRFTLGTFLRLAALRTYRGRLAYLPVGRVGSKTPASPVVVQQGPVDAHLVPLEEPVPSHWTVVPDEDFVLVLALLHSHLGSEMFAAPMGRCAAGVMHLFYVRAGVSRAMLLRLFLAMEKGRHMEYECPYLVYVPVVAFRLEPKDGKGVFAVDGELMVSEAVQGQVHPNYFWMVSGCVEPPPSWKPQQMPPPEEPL
Protocol: After incubation, cells were washed with ice-cold phosphate-buffered saline (PBS) and harvested.
(§1) SK assay was performed using radiolabeling as previously described, in conditions favouring SK1 or SK2 activity as required.
Fig. 2 Inhibition of sphingosine kinase 1 in cell-free extract and in vitro. a 1 µM of compounds SK-A to SK-F and SKI-II (commercial inhibitor of SK used as a positive control) were incubated in the presence of recombinant SK1 extract (in excess), 1 µM of ATP, and 1 µM exogenous sphingosine for 1 h. b MDA-MB-231 cells were incubated with 1 µM of compounds SK-A to SK-F and SKI-II for 6 h. SK1 activity was measured as described in materials and methods. Columns, means of three independent experiments normalised to vehicle; bars, SEM. (ns, non-significant; *p < 0.05; **p < 0.01)
Reportedly, among human tumour cell lines, the breast cancer cell line MDA-MB-231 expresses high levels of SK activity. We treated MDA-MB-231 cells with 1 µM of compounds SK-A – SK-F and SKI-II as the positive control for 6 h and analysed SK1 activity in the cell lysates using SK1 activity assay.

recombinant SK2 = target: T2, recombinant SK2 (Homo sapiens, UniProt Q9NRA0); assay: SK2 activity assay with recombinant SK2 (high salt), Lineweaver-Burk; type: biochemical; settings: Lineweaver-Burk plot, high salt (Figure S8B)
T2 sequence (Q9NRA0 1-654): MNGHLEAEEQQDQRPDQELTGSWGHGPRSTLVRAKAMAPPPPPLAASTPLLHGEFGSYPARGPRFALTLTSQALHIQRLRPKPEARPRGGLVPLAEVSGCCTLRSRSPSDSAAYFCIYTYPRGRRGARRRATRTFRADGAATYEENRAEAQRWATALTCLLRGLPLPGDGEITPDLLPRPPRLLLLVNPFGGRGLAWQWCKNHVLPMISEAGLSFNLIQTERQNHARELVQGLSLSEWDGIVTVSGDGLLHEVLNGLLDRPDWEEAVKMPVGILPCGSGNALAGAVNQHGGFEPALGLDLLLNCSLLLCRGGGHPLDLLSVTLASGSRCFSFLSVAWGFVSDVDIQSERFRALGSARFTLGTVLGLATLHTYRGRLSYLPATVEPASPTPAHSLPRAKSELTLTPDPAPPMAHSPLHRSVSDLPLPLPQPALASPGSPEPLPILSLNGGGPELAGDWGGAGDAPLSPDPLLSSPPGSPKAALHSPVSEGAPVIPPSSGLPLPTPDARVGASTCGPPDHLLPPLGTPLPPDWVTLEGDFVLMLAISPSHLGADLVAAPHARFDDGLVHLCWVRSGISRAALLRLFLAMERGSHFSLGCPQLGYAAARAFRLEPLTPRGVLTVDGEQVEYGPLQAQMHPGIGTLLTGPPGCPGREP
Protocol: as §1
SK1 activity was determined in the presence of triton X-100 and SK2 activity was measured in the presence of high salt concentrations, conditions that favour SK1 and SK2, respectively. […] Km for SK1 was 6.97 ± 1.20 µM, Vmax 98 ± 4 µM/min/mg protein and Ki for SK-F 0.46 ± 0.1 µM. […] Some SK inhibitors such as SKI-II were previously shown to induce proteasomal degradation of SK1 [48, 49].

tumour SK1 = target: T3, tumour SK1 (Mus musculus, UniProt Q8CI15); assay: SK1 activity in 4T1 allograft tumours; type: in vivo, BALB/c nude mice; settings: 5 mg/kg each drug i.p. twice a week for 2 weeks
T3 construct: primary tumours were then processed for analysis of SK1 activity as described above; from tissue; host or cells: 4T1 breast tumour allografts from BALB/c nude mice
T3 sequence (Q8CI15 whole entry): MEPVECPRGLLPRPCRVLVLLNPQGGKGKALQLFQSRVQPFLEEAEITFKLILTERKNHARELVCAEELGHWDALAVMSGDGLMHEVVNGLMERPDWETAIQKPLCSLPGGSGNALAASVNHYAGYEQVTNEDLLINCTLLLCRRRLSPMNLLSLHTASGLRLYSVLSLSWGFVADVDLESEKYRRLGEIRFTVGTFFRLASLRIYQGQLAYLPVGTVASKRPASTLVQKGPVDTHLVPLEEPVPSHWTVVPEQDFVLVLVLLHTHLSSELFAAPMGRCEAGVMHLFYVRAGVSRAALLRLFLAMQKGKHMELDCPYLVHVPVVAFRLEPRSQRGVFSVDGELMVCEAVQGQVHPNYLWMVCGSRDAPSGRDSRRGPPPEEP
Protocol: (§2) Breast cancer allografts were established in 6–8-week-old BALB/c nude mice by injection of 10^6 4T1 cells into their mammary pad. Two weeks after implantation, mice were randomised into treatment groups (n = 6/group) and treated twice a week for 2 weeks with intraperitoneal injections of dimethyl sulfoxide (DMSO), 5 mg/kg DTX, 5 mg/kg SK-F, 5 mg/kg DTX + 5 mg/kg SK-F. One day after the last treatment, all mice were euthanized and blood was collected. Tumour long and short radii were measured using calipers and tumour volume (v) was calculated using the formula v = 4/3 πab^2 (a – long radius, b – short radius). Mice and individual organs were weighed and primary tumours were then processed for analysis of SK1 activity as described above. Full blood count and liver function test analysis was done in the Hammersmith hospital biochemical lab.
Fig. 5 Effect of compound SK-F on breast tumour growth and SK1 activity. […] Two weeks after implantation, mice were randomised into treatment groups (n = 6/group) and treated twice a week for 2 weeks with intraperitoneal injections of: DMSO, 5 mg/kg DTX, 5 mg/kg SK-F, 5 mg/kg DTX + 5 mg/kg SK-F. a Tumour volume in the different treatment groups of 4T1 breast cancer implanted in mouse mammary fat pad. b SK1 activity in tumours was measured using radiolabelling. […]

[2] = Liver function tests in treated mice; type: in vivo, BALB/c nude mice; settings: 5 mg/kg each drug i.p. twice a week for 2 weeks, compared with DTX
Protocol: as §2
Fig. 6 Liver function tests of mice treated with SK-F and docetaxel (DTX). Breast cancer allografts were established in BALB/c nude mice by injection of 4T1 cells into their mammary pad. Two weeks after implantation, mice were randomised into treatment groups (n = 6/group) and treated twice a week for two weeks with intraperitoneal injections of: DMSO, 5 mg/kg DTX, 5 mg/kg SK-F, 5 mg/kg DTX + 5 mg/kg SK-F. a Alanine transaminases (ALT). b Bilirubin. c Aspartate transaminase (AST). d Albumin. e Alkaline phosphatase (ALP). f Total protein. Columns, mean of n = 6 animals normalised to control; bars, SEM. (*p < 0.05; **p < 0.01)

CCCCCCCCc1ccc(NC(=O)c2ccccc2)cc1 [SK-F]
SK1 activity in cells versus vehicle ([1]; 1 µM): significantly decreased | inhibition at 1 µM ([1]; read-out: inhibition of SK1 activity in vitro): 48.2% | inhibition of SK2 (recombinant SK2): no inhibition | tumour SK1 activity (tumour SK1): significantly reduced | liver function test toxicity profile [2]: milder toxicity profile
